Data set [1] concerns the target B-Raf (Homo sapiens, UniProt P15056). The data set is described as follows: B-Raf biochemical kinase inhibition (AlphaScreen, biotin-MEK1 substrate). The conditions noted are these: 100 μM ATP. In short, it runs like this:
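IC50 derived from AlphaScreen signal plotted against compound concentration. Final ATP 100 μM; 3 h incubation at room temperature. Eight-point 3-fold dilution series prepared from a 0.1 mM DMSO stock.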
In general terms: Bead proximity is the source of the signal in Alpha formats.

The test system of data set [2] is COLO205 colon adenocarcinoma cells (B-Raf V600E). Nature of the data set: COLO205 cell growth inhibition (ATPlite). Type of data set: cell-based. The note with it: Homo sapiens, COLO 205, 72 h; COLO205, 3 days incubation. In short, it runs like this: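 Cells plated overnight, then exposed 3 days at 37° C to 8-point 1:3 compound dilutions topping at 10 μM final. Viability read as ATPlite luminescence, proportional to cell number; IC50 from luminescence versus concentration.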
(In general: ATP-based viability assays read luminescence as a measure of living cells.)

Data set [3] has as its target T1, CYP1A2 (Homo sapiens, UniProt P05177).
T1 sequence (P05177 1-516): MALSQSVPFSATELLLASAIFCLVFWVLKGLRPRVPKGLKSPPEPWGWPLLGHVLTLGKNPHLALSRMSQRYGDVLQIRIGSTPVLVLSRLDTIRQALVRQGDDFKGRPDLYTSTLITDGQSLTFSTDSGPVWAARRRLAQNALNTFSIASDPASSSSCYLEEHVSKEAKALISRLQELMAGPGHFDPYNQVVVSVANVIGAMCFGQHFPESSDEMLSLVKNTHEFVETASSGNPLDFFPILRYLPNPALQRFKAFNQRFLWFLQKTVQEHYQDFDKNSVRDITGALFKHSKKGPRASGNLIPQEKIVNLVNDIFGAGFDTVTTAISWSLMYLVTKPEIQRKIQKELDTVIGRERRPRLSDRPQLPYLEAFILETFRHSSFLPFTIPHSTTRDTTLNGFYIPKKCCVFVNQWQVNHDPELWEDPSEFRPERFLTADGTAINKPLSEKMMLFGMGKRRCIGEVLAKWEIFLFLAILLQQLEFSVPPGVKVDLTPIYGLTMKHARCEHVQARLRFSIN
Nature of the data set: CYP1A2 inhibition (fluorescent substrate). In kind it is in vitro ADME. The note with it: CYP1A2, CEC substrate; read-out: Cyp IC50 1A2. In short, it runs like this:
(§1)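 IC50 values come from plotting product fluorescence against compound concentration; inhibition lowers formation of the fluorescent metabolite. Ten-point twofold dilutions in co-factor mix were held 10 minutes at 37 °C before the enzyme reaction, also run at 37 °C.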

For data set [4], the target named is CYP2D6 (Homo sapiens, UniProt P10635). Nature of the data set: CYP2D6 inhibition (fluorescent substrate). In kind it is in vitro ADME. The note with it: CYP2D6, AMMC substrate; read-out: Cyp IC50 2D6. In short, it runs like this: as §1
Sequence of CYP2D6 (P10635 whole entry): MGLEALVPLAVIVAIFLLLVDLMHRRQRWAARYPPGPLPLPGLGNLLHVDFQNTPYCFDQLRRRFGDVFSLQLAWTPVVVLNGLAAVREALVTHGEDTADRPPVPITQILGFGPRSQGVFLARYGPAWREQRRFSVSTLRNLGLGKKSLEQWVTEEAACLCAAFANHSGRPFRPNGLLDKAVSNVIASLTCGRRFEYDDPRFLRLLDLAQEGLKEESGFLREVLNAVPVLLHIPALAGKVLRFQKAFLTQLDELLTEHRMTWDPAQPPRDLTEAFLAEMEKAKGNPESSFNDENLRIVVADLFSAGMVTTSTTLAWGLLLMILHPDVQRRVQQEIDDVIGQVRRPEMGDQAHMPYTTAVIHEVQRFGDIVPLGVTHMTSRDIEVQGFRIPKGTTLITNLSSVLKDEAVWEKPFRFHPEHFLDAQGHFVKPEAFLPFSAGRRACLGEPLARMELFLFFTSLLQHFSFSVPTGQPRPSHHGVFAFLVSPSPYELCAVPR

Sequence of B-Raf (P15056 whole entry): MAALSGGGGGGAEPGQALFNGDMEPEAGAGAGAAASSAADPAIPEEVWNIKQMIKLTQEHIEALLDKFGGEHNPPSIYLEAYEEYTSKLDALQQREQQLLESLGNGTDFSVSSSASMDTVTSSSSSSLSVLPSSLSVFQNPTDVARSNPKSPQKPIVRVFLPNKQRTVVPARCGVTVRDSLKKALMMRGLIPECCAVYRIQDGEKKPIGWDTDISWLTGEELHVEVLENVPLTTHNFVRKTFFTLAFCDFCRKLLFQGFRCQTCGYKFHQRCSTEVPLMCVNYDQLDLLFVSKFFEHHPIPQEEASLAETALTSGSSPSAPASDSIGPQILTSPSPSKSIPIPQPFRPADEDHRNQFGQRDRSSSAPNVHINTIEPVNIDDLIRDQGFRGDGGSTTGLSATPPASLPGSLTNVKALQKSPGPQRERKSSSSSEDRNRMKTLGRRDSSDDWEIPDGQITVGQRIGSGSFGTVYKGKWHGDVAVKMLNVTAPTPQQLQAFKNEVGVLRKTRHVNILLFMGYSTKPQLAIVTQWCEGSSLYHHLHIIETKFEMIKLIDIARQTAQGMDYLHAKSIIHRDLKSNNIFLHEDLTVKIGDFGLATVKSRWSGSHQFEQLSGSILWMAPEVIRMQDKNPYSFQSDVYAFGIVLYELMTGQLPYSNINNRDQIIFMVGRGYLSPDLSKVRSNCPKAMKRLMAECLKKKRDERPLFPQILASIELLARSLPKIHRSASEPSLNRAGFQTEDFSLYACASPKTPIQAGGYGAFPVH

With `COc1ncc(-c2cnc3[nH]cc(C(=O)c4c(F)ccc(NS(=O)(=O)c5c(F)cccc5F)c4F)c3c2)cn1` [P-2043, N-{2,4-Difluoro-3-[5-(2-methoxy-pyrimidin-5-yl)-1H-pyrrolo[2,3-b]pyridine-3-carbonyl]-phenyl}-2,6-difluoro-benzenesulfonamide], the concentration for half-maximal inhibition (IC50) in data set [1] was less than 10 nM; in data set [2], less than 1000 nM; in data set [3], more than 10 µM; in data set [4], 5 to 10 µM.
In the same order, the values of `COc1ncc(-c2cnc3[nH]cc(C(=O)c4c(F)ccc(NS(=O)(=O)c5cccc(F)c5)c4F)c3c2)cn1` [P-2045, N-{2,4-Difluoro-3-[5-(2-methoxy-pyrimidin-5-yl)-1H-pyrrolo[2,3-b]pyridine-3-carbonyl]-phenyl}-3-fluoro-benzenesulfonamide] are less than 10 nM, less than 1000 nM, more than 10 µM and more than 10 µM.
Consider `N#Cc1cnc2[nH]cc(C(=O)c3c(F)ccc(NS(=O)(=O)c4ccccc4)c3F)c2c1` [P-2046, N-[3-(5-Cyano-1H-pyrrolo[2,3-b]pyridine-3-carbonyl)-2,4-difluoro-phenyl]-benzenesulfonamide], for which the concentration for half-maximal inhibition (IC50) in data set [1] was less than 10 nM; in data set [2], less than 1000 nM; in data set [3] it was more than 10 µM; in data set [4], more than 10 µM.
Consider `N#Cc1cnc2[nH]cc(C(=O)c3cccc(NS(=O)(=O)c4cc(F)ccc4F)c3F)c2c1` [P-2052, N-[3-(5-Cyano-1H-pyrrolo[2,3-b]pyridine-3-carbonyl)-2-fluoro-phenyl]-2,5-difluoro-benzenesulfonamide], for which the 50% inhibitory concentration (IC50) was less than 100 nM in data set [1], less than 1000 nM in data set [2], more than 10 µM in data set [3] and more than 10 µM in data set [4].
Turning to `N#Cc1cnc2[nH]cc(C(=O)c3cccc(NS(=O)(=O)c4cccc(F)c4)c3F)c2c1` [P-2053, N-[3-(5-Cyano-1H-pyrrolo[2,3-b]pyridine-3-carbonyl)-2-fluoro-phenyl]-3-fluoro-benzenesulfonamide], the half-inhibitory concentration (IC50) in data set [1] is less than 10 nM; in data set [2] it was less than 1000 nM; in data set [3], more than 10 µM; in data set [4], more than 10 µM.
Turning to `N#Cc1cnc2[nH]cc(C(=O)c3cccc(NS(=O)(=O)c4ccccc4)c3F)c2c1` [P-2056, N-[3-(5-Cyano-1H-pyrrolo[2,3-b]pyridine-3-carbonyl)-2-fluoro-phenyl]-benzenesulfonamide], the IC50 in data set [1] is less than 100 nM; in data set [2], less than 5000 nM; in data set [3], more than 10 µM; in data set [4], more than 10 µM.
As for `Cc1cnc2[nH]cc(C(=O)c3c(F)ccc(NS(=O)(=O)c4cccnc4)c3F)c2c1` [P-2069, Pyridine-3-sulfonic acid [2,4-difluoro-3-(5-methyl-1H-pyrrolo[2,3-b]pyridine-3-carbonyl)-phenyl]-amide], the half-inhibitory concentration (IC50) in data set [1] was less than 10 nM; in data set [2], less than 1000 nM; in data set [3] it was more than 10 µM; in data set [4], more than 10 µM.
In the case of `N#Cc1cnc2[nH]cc(C(=O)c3c(F)ccc(NS(=O)(=O)c4cccnc4)c3F)c2c1` [P-2072, Pyridine-3-sulfonic acid [3-(5-cyano-1H-pyrrolo[2,3-b]pyridine-3-carbonyl)-2,4-difluoro-phenyl]-amide], the IC50 was less than 10 nM in data set [1], less than 5000 nM in data set [2], more than 10 µM in data set [3] and more than 10 µM in data set [4].
For `COc1ccnc2[nH]cc(C(=O)c3c(F)ccc(NS(=O)(=O)c4cccnc4)c3F)c12` [P-2073, Pyridine-3-sulfonic acid [2,4-difluoro-3-(4-methoxy-1H-pyrrolo[2,3-b]pyridine-3-carbonyl)-phenyl]-amide], the half-inhibitory concentration (IC50) in data set [1] was less than 100 nM; in data set [2] it was less than 10000 nM; in data set [3], more than 10 µM; in data set [4] it was more than 10 µM.
`CCCS(=O)(=O)Nc1ccc(F)c(C(=O)c2c[nH]c3ncc(-c4ccc(C(=O)NCC)nc4)cc23)c1F` [P-2151, 5-{3-[2,6-Difluoro-3-(propane-1-sulfonylamino)-benzoyl]-1H-pyrrolo[2,3-b]pyridin-5-yl}-pyridine-2-carboxylic acid ethylamide]: the IC50 is less than 10 nM in data set [1], less than 1000 nM in data set [2], more than 10 µM in data set [3] and more than 10 µM in data set [4].
As for `CCCS(=O)(=O)Nc1ccc(F)c(C(=O)c2c[nH]c3ncc(-c4ccc(Cl)nc4)cc23)c1F` [P-2154, Propane-1-sulfonic acid {3-[5-(6-chloro-pyridin-3-yl)-1H-pyrrolo[2,3-b]pyridine-3-carbonyl]-2,4-difluoro-phenyl}-amide], the IC50 in data set [1] is less than 10 nM; in data set [2] it was less than 1000 nM; in data set [3], more than 10 µM; in data set [4], more than 10 µM.
Regarding `CCCS(=O)(=O)Nc1ccc(F)c(C(=O)c2c[nH]c3ncc(-c4ccc(F)nc4)cc23)c1F` [P-2155, Propane-1-sulfonic acid {2,4-difluoro-3-[5-(6-fluoro-pyridin-3-yl)-1H-pyrrolo[2,3-b]pyridine-3-carbonyl]-phenyl}-amide], the IC50 was less than 10 nM in data set [1], less than 1000 nM in data set [2], more than 10 µM in data set [3] and more than 10 µM in data set [4].
On to `CCCS(=O)(=O)Nc1ccc(F)c(C(=O)c2c[nH]c3ncc(-c4cncnc4)cc23)c1F` [P-2162, Propane-1-sulfonic acid [2,4-difluoro-3-(5-pyrimidin-5-yl-1H-pyrrolo[2,3-b]pyridine-3-carbonyl)-phenyl]-amide], for which the IC50 was less than 100 nM in data set [1], less than 1000 nM in data set [2], less than 5 µM in data set [3] and more than 10 µM in data set [4].
On to `CCCS(=O)(=O)Nc1ccc(F)c(C(=O)c2c[nH]c3ncc(-c4ccc(NS(C)(=O)=O)cc4)cc23)c1F` [P-2165, Propane-1-sulfonic acid {2,4-difluoro-3-[5-(4-methanesulfonylamino-phenyl)-1H-pyrrolo[2,3-b]pyridine-3-carbonyl]-phenyl}-amide], for which the half-inhibitory concentration (IC50) in data set [1] was less than 10 nM; in data set [2], less than 1000 nM; in data set [3] it was more than 10 µM; in data set [4], more than 10 µM.
For `CCCS(=O)(=O)Nc1ccc(F)c(C(=O)c2c[nH]c3ncc(-c4ccc(S(=O)(=O)N5CCOCC5)cc4)cc23)c1F` [P-2166, Propane-1-sulfonic acid (2,4-difluoro-3-{5-[4-(morpholine-4-sulfonyl)-phenyl]-1H-pyrrolo[2,3-b]pyridine-3-carbonyl}-phenyl)-amide], the IC50 in data set [1] was less than 10 nM; in data set [2], less than 100 nM; in data set [3] it was more than 10 µM; in data set [4], more than 10 µM.
Consider `CCCS(=O)(=O)Nc1ccc(F)c(C(=O)c2c[nH]c3ncc(-c4ccc(S(=O)(=O)NC)cc4)cc23)c1F` [P-2167, 4-{3-[2,6-Difluoro-3-(propane-1-sulfonylamino)-benzoyl]-1H-pyrrolo[2,3-b]pyridin-5-yl}-N-methyl-benzenesulfonamide], for which the 50% inhibitory concentration (IC50) in data set [1] was less than 10 nM; in data set [2] it was less than 100 nM; in data set [3] it was more than 10 µM; in data set [4], more than 10 µM.
`CCCS(=O)(=O)Nc1ccc(F)c(C(=O)c2c[nH]c3ncc(-c4ccc(S(=O)(=O)NC5CC5)cc4)cc23)c1F` [P-2168, N-Cyclopropyl-4-{3-[2,6-difluoro-3-(propane-1-sulfonylamino)-benzoyl]-1H-pyrrolo[2,3-b]pyridin-5-yl}-benzenesulfonamide]: the IC50 was less than 10 nM in data set [1], less than 100 nM in data set [2], more than 10 µM in data set [3] and more than 10 µM in data set [4].
On to `CCCS(=O)(=O)Nc1ccc(F)c(C(=O)c2c[nH]c3ncc(-c4cn[nH]c4)cc23)c1F` [P-2174, Propane-1-sulfonic acid {2,4-difluoro-3-[5-(1H-pyrazol-4-yl)-1H-pyrrolo[2,3-b]pyridine-3-carbonyl]-phenyl}-amide], for which the 50% inhibitory concentration (IC50) in data set [1] was less than 10 nM; in data set [2] it was less than 1000 nM; in data set [3], more than 10 µM; in data set [4] it was 5 to 10 µM.
In the same order, the values of `CCCS(=O)(=O)Nc1ccc(F)c(C(=O)c2c[nH]c3ncc(-c4cnn(CCN5CCOCC5)c4)cc23)c1F` [P-2177, Propane-1-sulfonic acid (2,4-difluoro-3-{5-[1-(2-morpholin-4-yl-ethyl)-1H-pyrazol-4-yl]-1H-pyrrolo[2,3-b]pyridine-3-carbonyl}-phenyl)-amide] are less than 10 nM, less than 100 nM, more than 10 µM and more than 10 µM.

As a reminder, the IC50 is the concentration that gives 50% inhibition.

The values above are taken from patent US8198273B2, “Compounds and methods for kinase modulation, and indications therefor” (Plexxikon Inc., priority 2009, dated 2012).
